In experiment [1] the test system is Sweetpotato Whitefly-Crawler (WF) (Bemisia tabaci) (BEMITA). Nature of the experiment: Insecticidal test for Sweetpotato Whitefly-crawler (WF) in foliar spray assay on cotton plants. As to conditions: 216 h, 200 ppm foliar spray on cotton plants, graded after 9 days, Abbott corrected % control, read-out: WF % Control (or Mortality) rating. Format: in vivo. How it is done: Insecticidal Test for Sweetpotato Whitefly-Crawler (WF) (Bemisia tabaci) (BEMITA) in Foliar Spray Assay
Cotton plants (Gossypium hirsutum) grown in 3-inch pots, with 1 small (4-5 cm) true leaves, were used as test substrate. The plants were infested with 200-400 whitefly eggs 4-5 days prior to chemical application. Four pots with individual plants were used for each treatment. Test compounds (2 mg) were dissolved in 1 mL of acetone solvent, forming stock solutions of 2000 ppm test compound. The stock solutions were diluted 10× with 0.025% Tween 20 in H2O (diluents) to obtain the solution at 200 ppm test compound. A hand-held aspirator-type sprayer was used for spraying a solution to both sides of cotton leaves until runoff. Reference plants (solvent check) were sprayed with the diluent only containing 10% by volume of acetone solvent. Treated plants were held in a holding room for 9 days at approximately 25° C. and ambient relative humidity (RH) prior to grading. Evaluation was conducted by counting the number of live 3-4 nymph stage per plant under a microscope. Percent control was measured by using Abbott's correction formula (W. S. Abbott, “A Method of Computing the Effectiveness of an Insecticide,” J. Econ. Entomol. 18 (1925), pp. 265-267) as follows. Corrected % Control=100*(X−Y)/X
X=No. of live nymphs on solvent check plants and
Y=No. of live nymphs on treated plants.
Biological Data for Green Peach Aphid (MYZUPE) and Sweetpotato Whitefly-crawler (WF) (BEMITA)” (see Table section).
(§1) The mortality efficiency of the pesticidal compounds against GPA and WF insects was determined after treatment.

Experiment [2] has as its system Green Peach Aphid (Myzus persicae) (GPA) (MYZUPE). Nature of the experiment: Bioassay for Green Peach Aphid (GPA) foliar spray on cabbage seedlings. Format: in vivo. As to conditions: 72 h, 200 ppm foliar spray on cabbage seedlings, graded after three days, Abbott corrected % control, read-out: GPA % Control (or Mortality) rating. On the procedure:
Bioassay for Green Peach Aphid (Myzus persicae) (GPA) (MYZUPE)
Cabbage seedlings grown in 3-inch pots, with 2-3 small (3-5 cm) true leaves, were used as test substrate. The seedlings were infested with 20-50 GPA (wingless adult and nymph stages) one day prior to chemical application. Four pots with individual seedlings were used for each treatment. Test compounds (2 mg) were dissolved in 2 mL of acetone/methanol (1:1) solvent, forming stock solutions of 1000 ppm test compound. The stock solutions were diluted 5× with 0.025% Tween 20 in H2O to obtain the solution at 200 ppm test compound. A hand-held aspirator-type sprayer was used for spraying a solution to both sides of cabbage leaves until runoff Reference plants (solvent check) were sprayed with the diluent only containing 20% by volume of acetone/methanol (1:1) solvent. Treated plants were held in a holding room for three days at approximately 25° C. and ambient relative humidity (RH) prior to grading. Evaluation was conducted by counting the number of live aphids per plant under a microscope. Percent control was measured by using Abbott's correction formula (W. S. Abbott, “A Method of Computing the Effectiveness of an Insecticide,” J. Econ. Entomol. 18 (1925), pp. 265-267) as follows Corrected % Control=100*(X−Y)/X
X=No. of live aphids on solvent check plants and
Y=No. of live aphids on treated plants.
Biological Data for Green Peach Aphid (GPA) (MYZUPE) and Sweetpotato Whitefly-crawler (WF) (BEMITA)” (see Table section).
as §1

Each structure is given as a SMILES string. A value given as a limit tells only on which side of the number the result lay.

In the case of `Clc1ccccc1-c1cn(-c2cccnc2)nn1` [Compound F1], the mortality at 200 ppm in experiment [1] and in experiment [2] was 0 to 80% each time.

As to `FC(F)(F)c1ccc(-c2cn(-c3cccnc3)nn2)cn1` [Compound F2, 5-[1-(Pyridin-3-yl)-1H-1,2,3-triazol-4-yl]-2-(trifluoromethyl)pyridine], the mortality at 200 ppm was 0 to 80% in experiment [1] and 80 to 100% in experiment [2].

For the compound `CSc1cccc(-c2cn(-c3cccnc3)nn2)c1` [Compound F3], the mortality at 200 ppm is < 0% in experiment [1] and 80 to 100% in experiment [2].

Consider `Cc1ccc(-c2cn(-c3cccnc3)nn2)nc1` [Compound F4, 5-Methyl-2-[1-(pyridin-3-yl)-1H-1,2,3-triazol-4-yl]pyridine], for which the mortality at 200 ppm in experiment [1] and in experiment [2] was 80 to 100% throughout.

With `COc1cccc(-c2cn(-c3cccnc3)nn2)n1` [Compound F5, 2-Methoxy-6-[1-(pyridin-3-yl)-1H-1,2,3-triazol-4-yl]pyridine], the mortality at 200 ppm was 0 to 80% in experiment [1] and 80 to 100% in experiment [2].

As for `FC(F)(F)Oc1cccc(-c2cn(-c3cccnc3)nn2)c1` [Compound F6, 3-(4-(3-(trifluoromethoxy)phenyl)-1H-1,2,3-triazol-1-yl)pyridine], the mortality at 200 ppm in experiment [1] lay within 0 to 80%; in experiment [2], 80 to 100%.

For `FC(F)(F)c1cccc(-c2cn(-c3cccnc3)nn2)n1` [Compound F7, 2-[1-(pyridin-3-yl)-1H-1,2,3-triazol-4-yl]-6-(trifluoromethyl) pyridine], the mortality at 200 ppm in experiment [1] and in experiment [2] was 80 to 100% in each case.

In the case of `FC(F)(F)c1ccc(-c2cn(-c3cccnc3)nn2)nc1` [Compound F8, 2-[1-(Pyridin-3-yl)-1H-1,2,3-triazol-4-yl]-5-(trifluoromethyl)pyridine], the mortality at 200 ppm in experiment [1] and in experiment [2] was 80 to 100% throughout.

Consider `Brc1cccc(-c2cn(-c3cccnc3)nn2)n1` [Compound F9, 2-Bromo-6-[1-(pyridin-3-yl)-1H-1,2,3-triazol-4-yl]pyridine], for which the mortality at 200 ppm in experiment [1] was 0 to 80%; in experiment [2], 80 to 100%.

For `Clc1cccc(-c2cn(-c3cccnc3)nn2)n1` [Compound F10, 2-Chloro-6-[1-(pyridin-3-yl)-1H-1,2,3-triazol-4-yl]pyridine], the results for the mortality at 200 ppm in experiment [1] and in experiment [2] were 0 to 80% and 80 to 100%, respectively.

Turning to `Clc1cccc(-c2cn(-c3cccnc3)nn2)c1` [Compound F11], the mortality at 200 ppm in experiment [1] was < 0%; in experiment [2] it was 0 to 80%.

Take `Cc1cccc(-c2cn(-c3cccnc3)nn2)n1` [Compound F12, 2-methyl-6-(1-(pyridin-3-yl)-1H-1,2,3-triazol-4-yl)pyridine]: the mortality at 200 ppm in experiment [1] and in experiment [2] was 80 to 100% each time.

Take `FC(F)(F)c1cccc(-c2cn(-c3cccnc3)nn2)c1` [Compound F13]: the mortality at 200 ppm in experiment [1] is < 0%; in experiment [2] it was 80 to 100%.

For orientation: mortality means the percentage killed.

These data come from US9491944B2, “Pesticidal compositions and related methods” (DOW AGROSCIENCES LLC, priority 2013, dated 2016).
